“And” between values parts separate entries of the source, which are not always exact repeats. Identical values can stand only once.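 Protocol summary: plate cells (96-well), add compound at 5 concentrations, incubate 48 h, interpolate endpoints linearly. GI50 = concentration required for 50% inhibition of growth. TGI: total growth inhibition.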
Key:
Experiment in all cases: growth of human tumour cells (NCI), 48 h
[1] = test system: SR leukemia
[2] = test system: NCI-H23 lung
[3] = test system: HOP-62 NSCLC
[4] = test system: A498 renal
[5] = test system: MALME-3M melanoma
[6] = test system: NCI-H522 lung
[7] = test system: SW-620 colon
[8] = test system: COLO 205 colon
[9] = test system: NCI/ADR-RES ovarian
[10] = test system: DU-145 prostate

Row | SMILES | TGI [1] | TGI [2] | TGI [3] | TGI [4] | TGI [5] | TGI [6] | TGI [7] | TGI [8] | GI50 [2] | GI50 [3] | GI50 [4] | GI50 [8] | GI50 [9] | TGI [9] | GI50 [5] | GI50 [6] | TGI [10] | GI50 [10] | GI50 [7]
1 | c1ccc(C2CC(c3ccc4ccccc4c3)=Nc3ccccc3S2)cc1 (stereo unspecified) | > 100 µM | 28.9 µM | 38.2 µM | 31.1 µM | 35.8 µM | 33.2 µM | 33.8 µM | – | – | – | – | – | – | – | – | – | – | – | –
2 | O=C1C=C(Nc2ccc(S(=O)(=O)Nc3ncccn3)cc2)c2ccccc2C1=O | 95.9 µM | 34.1 µM | 54.6 µM | 69.4 µM | 43.9 µM | 32 µM | 35.1 µM | 39.4 µM | – | – | – | – | – | – | – | – | – | – | –
3 | Clc1ccc(OCc2nnc3n2N=C(c2ccccc2)CS3)c(Cl)c1 | > 100 µM | > 100 µM | – | 76.8 µM | > 100 µM | > 100 µM | > 100 µM | – | – | – | – | – | – | – | – | – | – | – | –
4 | CC12OC(C(=O)C13CCC3)C1C(=O)c3ccc4c(ccc5ccccc54)c3C(=O)C12 (stereo unspecified) | – | 23.6 µM | 53.4 µM | 29.6 µM | 17.2 µM | 35.1 µM | – | 33.1 µM | 10.5 µM | 25.2 µM | 8.74 µM | 11.2 µM | 4.45 µM | 22.8 µM | 4.2 µM | 13 µM | – | – | –
5 | C=Cc1c(C)c2cc3[nH]c(cc4nc(cc5nc(cc1[nH]2)C(C)=C5CCC(=O)N(CC)CC)C(CCC(=O)N(CC)CC)=C4C)c(C)c3C=C | > 100 µM | > 100 µM | > 100 µM | – | > 100 µM | > 100 µM | > 100 µM | – | – | – | – | – | – | – | – | – | – | – | –
6 | CNCCCNc1c2ccccc2nc2cccc([N+](=O)[O-])c12 | – | 0.00564 µM | 0.0129 µM | 0.00751 µM | 0.00997 µM | 0.0022 µM | 0.0357 µM and 0.0101 µM | 0.00586 µM | – | – | – | – | – | 0.0346 µM | – | – | 19.2 nM | – | –
7 | COC(=O)CC(=O)NCC1=CCC(=O)CC1 | – | > 100 µM | > 100 µM | > 100 µM | > 100 µM | > 100 µM | > 100 µM | > 100 µM | – | – | – | – | – | – | – | – | – | – | –
8 | NC(=S)N/N=C1/CN(c2ccc(Cl)c(Cl)c2)CC(=O)C1c1nc2ccccc2s1 (stereo unspecified) | – | > 100 µM | > 100 µM | > 100 µM | > 100 µM | > 100 µM | > 100 µM | > 100 µM | – | – | – | – | – | – | – | – | – | – | –
9 | CC1=C(C(=O)Nc2ccccc2)C(c2cc(Cl)cc(Cl)c2)C(C(=O)Nc2ccccc2)=C(C)N1 | 12.6 µM | 19.1 µM | 31.1 µM | 43.1 µM | 27.9 µM | 13.3 µM | 25.9 µM | 31 µM | – | – | – | – | – | – | – | – | – | – | –
10 | CC(C)C(=S)N(C)O | > 100 µM | > 100 µM | > 93.3 µM | 63.1 µM | > 100 µM | > 27.2 µM | > 61.5 µM | > 100 µM | – | – | – | – | – | – | – | – | – | – | –
11 | O=C(O)Cn1ccc2ccccc21 | – | > 100 µM | > 100 µM | > 100 µM | > 100 µM | > 100 µM | > 100 µM | > 100 µM | > 100 µM | > 100 µM | > 100 µM | > 100 µM | > 100 µM | > 100 µM | > 100 µM | > 100 µM | > 100000 nM | > 100 µM | > 100 µM
12 | O=C1Nc2ccccc2/C1=C/c1cn(CC(O)Cn2cc(/C=C3\C(=O)Nc4ccccc43)c3ccccc32)c2ccccc12 (stereo unspecified) | – | 3.36 µM | 3.06 µM | 4.08 µM | 3.26 µM | – | 3.48 µM | – | 1.57 µM | 1.41 µM | 2.18 µM | – | 12.1 µM | 57.1 µM | 1.51 µM | – | 2950 nM | 1.55 µM | 1.34 µM
13 | CC(C)(C)c1nc(-c2cccc(NS(=O)(=O)c3c(F)cccc3F)c2F)c(-c2ccnc(N)n2)s1 | – | 98.6 µM | > 100 µM | – | – | 54.7 µM | > 100 µM | > 100 µM | 10.3 µM | 47.2 µM | – | < 0.01 µM | 50.9 µM | > 100 µM | – | 19 µM | > 100000 nM | 58.5 µM | 23.9 µM
14 | C1CC2=C(C1)C1=S(S2)SC2=C1CCC2 | – | > 100 µM | – | 87.4 µM | > 100 µM | > 100 µM | > 100 µM | > 100 µM | – | – | – | – | – | – | – | – | – | – | –
15 | c1cc[c]([Sn]([O]c2cccc3cccnc23)([O]c2cccc3cccnc23)[c]2ccccc2)cc1 | – | 0.5 µM | 17.9 µM | – | – | – | – | 2.28 µM | 0.209 µM | 5.26 µM | – | 1.07 µM | – | – | – | – | – | – | –
16 | O=C(/C(=N/Nc1ccccc1)c1ccc([N+](=O)[O-])cc1)c1ccc([N+](=O)[O-])cc1 | > 100 µM | > 100 µM | – | – | > 100 µM | > 100 µM | > 100 µM | > 100 µM | – | – | – | – | – | – | – | – | – | – | –
17 | CCOC(=O)C1=C(C(=O)OCC)C2(c3ccccc3)N(O1)c1ccccc1C2(C)C (stereo unspecified) | – | > 100 µM | > 100 µM | > 100 µM | > 100 µM | 63.8 µM | > 100 µM | > 100 µM | – | – | – | – | – | – | – | – | – | – | –
18 | C/C(O)=C(\N=O)C(=O)NCc1ccccc1 | > 100 µM | > 100 µM | > 100 µM | > 100 µM | > 100 µM | > 100 µM | 31.4 µM | > 100 µM | – | – | – | – | – | – | – | – | – | – | –
19 | CCC(C)(O)c1cn(-c2ccc(S(=O)(=O)O)cc2)nn1 (stereo unspecified) | – | > 100 µM | > 100 µM | > 100 µM | > 100 µM | > 100 µM | > 100 µM | > 100 µM | – | – | – | – | – | – | – | – | – | – | –
20 | COc1ccc(-c2nc(N)c(C#N)c3c2CCOc2c-3ccc3ccccc23)cc1 | – | 61.9 µM | 49.7 µM | – | 50.1 µM | > 100 µM | – | > 100 µM | 19.4 µM | 20.8 µM | – | 7.61 µM | 17.5 µM | 57.8 µM | 15.2 µM | 38.1 µM | – | – | –
21 | C/C(CC(=O)Nc1ccc(NC(=O)C/C(C)=N\NC(N)=O)cc1)=N/NC(N)=O | > 62.5 µM | > 100 µM | > 100 µM | > 100 µM | > 100 µM | > 100 µM | > 100 µM | > 79.7 µM | – | – | – | – | – | – | – | – | – | – | –

From PubChem BioAssay (NCI)
